Test results as given in patent publication US9796714B2, “Calcium channel agonists” (University of Pittsburgh—Of the Commonwealth System of …, priority 2013, dated 2017).
Read-outs that look alike come from different tables or passages of the source.

What was measured:
[1] = biological target: T1, N-type Ca^2+ channel (Cav2.2) (Rattus norvegicus, UniProt Q02294); assay: N-type Ca2+ channel agonist activity, whole-cell perforated patch clamp of tail currents in tsA201 cells; assay type: cell-based
T1 construct: expressed in transfected cells; later also transient transfection
T1 sequence (Q02294 whole entry): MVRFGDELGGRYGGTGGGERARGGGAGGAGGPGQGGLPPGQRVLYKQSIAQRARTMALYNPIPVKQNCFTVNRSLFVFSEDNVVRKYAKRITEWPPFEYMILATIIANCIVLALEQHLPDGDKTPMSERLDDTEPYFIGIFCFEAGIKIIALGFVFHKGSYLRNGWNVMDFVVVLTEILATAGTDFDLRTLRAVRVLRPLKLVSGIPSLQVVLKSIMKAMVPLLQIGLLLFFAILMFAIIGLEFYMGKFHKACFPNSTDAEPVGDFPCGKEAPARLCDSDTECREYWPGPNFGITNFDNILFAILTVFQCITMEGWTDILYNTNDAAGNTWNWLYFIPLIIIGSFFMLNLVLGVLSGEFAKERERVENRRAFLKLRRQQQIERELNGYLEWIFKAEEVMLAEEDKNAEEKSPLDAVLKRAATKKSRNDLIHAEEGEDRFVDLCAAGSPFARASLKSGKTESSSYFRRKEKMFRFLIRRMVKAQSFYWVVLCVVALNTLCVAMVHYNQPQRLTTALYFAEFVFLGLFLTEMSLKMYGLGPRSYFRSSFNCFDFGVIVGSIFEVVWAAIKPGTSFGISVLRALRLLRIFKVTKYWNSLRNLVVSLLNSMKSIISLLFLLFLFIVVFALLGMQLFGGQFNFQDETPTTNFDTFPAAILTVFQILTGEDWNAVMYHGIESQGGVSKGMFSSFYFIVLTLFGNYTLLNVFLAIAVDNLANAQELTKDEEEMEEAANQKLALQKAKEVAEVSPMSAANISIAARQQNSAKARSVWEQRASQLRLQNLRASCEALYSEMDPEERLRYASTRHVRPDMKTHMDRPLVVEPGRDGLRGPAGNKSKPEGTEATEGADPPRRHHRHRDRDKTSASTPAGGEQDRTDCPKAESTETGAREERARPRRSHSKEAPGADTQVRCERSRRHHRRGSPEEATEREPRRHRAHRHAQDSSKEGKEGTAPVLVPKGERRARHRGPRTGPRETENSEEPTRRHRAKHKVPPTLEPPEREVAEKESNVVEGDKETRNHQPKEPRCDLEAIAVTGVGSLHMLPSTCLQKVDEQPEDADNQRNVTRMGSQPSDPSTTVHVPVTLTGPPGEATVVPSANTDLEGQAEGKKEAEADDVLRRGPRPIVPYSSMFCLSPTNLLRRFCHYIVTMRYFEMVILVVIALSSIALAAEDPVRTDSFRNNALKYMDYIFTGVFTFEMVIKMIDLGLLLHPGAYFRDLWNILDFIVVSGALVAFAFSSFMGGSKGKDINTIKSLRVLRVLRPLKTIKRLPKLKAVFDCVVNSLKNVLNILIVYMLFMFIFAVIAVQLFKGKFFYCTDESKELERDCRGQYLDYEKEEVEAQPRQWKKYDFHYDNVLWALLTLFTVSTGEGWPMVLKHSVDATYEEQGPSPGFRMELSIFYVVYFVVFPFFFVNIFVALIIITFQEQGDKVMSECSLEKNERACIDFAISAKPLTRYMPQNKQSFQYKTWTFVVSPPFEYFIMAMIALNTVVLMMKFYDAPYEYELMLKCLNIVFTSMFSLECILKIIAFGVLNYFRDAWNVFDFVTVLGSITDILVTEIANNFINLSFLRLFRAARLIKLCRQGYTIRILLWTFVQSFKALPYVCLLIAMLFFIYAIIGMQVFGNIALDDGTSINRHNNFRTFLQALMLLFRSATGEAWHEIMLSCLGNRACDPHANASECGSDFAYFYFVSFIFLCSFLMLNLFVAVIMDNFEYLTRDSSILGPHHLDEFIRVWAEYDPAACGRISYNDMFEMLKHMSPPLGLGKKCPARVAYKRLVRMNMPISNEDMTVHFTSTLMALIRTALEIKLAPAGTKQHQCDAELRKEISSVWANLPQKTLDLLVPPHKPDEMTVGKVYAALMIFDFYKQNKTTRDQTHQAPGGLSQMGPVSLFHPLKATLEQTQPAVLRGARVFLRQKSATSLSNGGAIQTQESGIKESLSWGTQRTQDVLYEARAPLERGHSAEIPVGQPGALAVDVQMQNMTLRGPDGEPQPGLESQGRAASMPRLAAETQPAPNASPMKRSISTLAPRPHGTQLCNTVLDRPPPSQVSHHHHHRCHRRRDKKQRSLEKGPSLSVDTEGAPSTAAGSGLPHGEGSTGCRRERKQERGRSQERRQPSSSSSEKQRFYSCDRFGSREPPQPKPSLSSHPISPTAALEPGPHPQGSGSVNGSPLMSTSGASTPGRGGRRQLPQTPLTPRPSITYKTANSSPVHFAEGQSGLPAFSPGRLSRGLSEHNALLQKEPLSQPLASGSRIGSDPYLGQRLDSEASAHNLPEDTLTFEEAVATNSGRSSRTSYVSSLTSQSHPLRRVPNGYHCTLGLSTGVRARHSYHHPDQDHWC
Method: tsA201 cells expressing calcium channels. […] For subsequent evaluation of effects on N-, P/Q-, or L-type channels, tsA-201 cells were transiently transfected with Cav2.2, Cav2.1, or Cav1.3, in combination with Cavβ3 and […] (Addgene, Cambridge Mass.) using FuGENE 6 (Life Technologies, Grand Island, N.Y.). All cells were maintained in DMEM supplemented with 10% fetal bovine serum. For the stable cell line expressing N-type channels, 25 μg/mL zeocin, 5 μg/mL blasticidin, and 25 μg/mL hygromycin were added as selection agents.
Whole-cell patch clamp recordings of calcium current. […] Briefly, the pipette solution consisted of […] Cs2SO4, 60 mM CsCl, 1 mM MgCl2, 10 mM 4-(2-hydroxyethyl)-1-piperazineethanesulfonic acid (HEPES) at pH 7.4. […] Patch pipettes were fabricated from borosilicate glass and pulled to a resistance of about 1 MΩ. Before each experiment, a stock solution consisting of 3 mg amphotericin-B dissolved into 50 μL anhydrous DMSO was made. […] Capacitive currents and passive membrane responses to voltage commands were subtracted from the data. Currents were amplified by an Axopatch 200B amplifier, filtered at 5 KHz, and digitized at 10 KHz for subsequent analysis using pClamp software (Axon Instruments/Molecular Devices; Sunnyvale, Calif.). […] To measure effects on calcium channel tail currents, the tail current integral was measured before and after application of a derivative, with the integral of each trace being normalized to its peak. All experiments were carried out at room temperature (22° C.). […] All other salts and chemicals were obtained from Sigma-Aldrich chemical company (St. Louis, Mo.).
(§1) Statistical Analysis. Statistical analysis was performed using either GraphPad Prism 5 (GraphPad Software, Inc.) or Origin 7 (OriginLab) software. For the dose-response analyses on Ca^2+ current, each concentration of the four different compounds was tested in 3-6 cells. […] All EC50 and IC50 values and their respective errors were determined by performing 100 iterations of a logistic function curve fit. Data are presented as mean±s.e.m. unless otherwise noted.

cdk2 cyclinA(h) = biological target: T2, cdk2 cyclinA(h) (Homo sapiens, UniProt P24941); assay: Kinase inhibitory activity (EMD Millipore KinaseProfiler), cdk2; assay type: biochemical
T2 construct: purchased EMD Millipore KinaseProfiler service (Millipore UK Ltd.)
Method: (§2) Kinase inhibitory activity. Kinase inhibitory activities were determined using the EMD Millipore KinaseProfiler™ service (Millipore UK Ltd.). Each compound's kinase inhibitory activity was tested at three different concentrations (0.2 μM, 2 μM, and 20 μM) against five different kinases: Cdk1 cyclinB(h), cdk2 cyclinA(h), cdk5 p35(h), mitogen-activated protein kinase (MAPK1(h)) and myosin light-chain kinase (MLCK(h)).
(§3) Statistical Analysis. […] For the dose-response analyses on Ca^2+ current, each concentration of the four different compounds was tested in 3-6 cells. […] All EC50 and IC50 values and their respective errors were determined by performing 100 iterations of a logistic function curve fit.

Cdk1 cyclinB(h) = biological target: T3, Cdk1 cyclinB(h) (Homo sapiens, UniProt P06493); assay: Kinase inhibitory activity (EMD Millipore KinaseProfiler), cdk1; assay type: biochemical; conditions: 20 μM highest concentration used; read-out: Cdk1 EC50/IC50 affinities
T3 construct: purchased EMD Millipore KinaseProfiler service (Millipore UK Ltd.)
T3 sequence (P06493 whole entry): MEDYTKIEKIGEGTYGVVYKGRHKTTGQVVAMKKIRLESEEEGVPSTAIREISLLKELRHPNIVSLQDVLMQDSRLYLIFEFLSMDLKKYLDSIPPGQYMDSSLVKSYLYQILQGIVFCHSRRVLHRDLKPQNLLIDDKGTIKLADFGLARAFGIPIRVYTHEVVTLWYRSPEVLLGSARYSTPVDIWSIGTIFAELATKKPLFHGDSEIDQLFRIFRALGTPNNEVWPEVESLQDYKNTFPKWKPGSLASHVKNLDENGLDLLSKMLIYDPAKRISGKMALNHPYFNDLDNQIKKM
T3 sequence (P14635 whole entry partner): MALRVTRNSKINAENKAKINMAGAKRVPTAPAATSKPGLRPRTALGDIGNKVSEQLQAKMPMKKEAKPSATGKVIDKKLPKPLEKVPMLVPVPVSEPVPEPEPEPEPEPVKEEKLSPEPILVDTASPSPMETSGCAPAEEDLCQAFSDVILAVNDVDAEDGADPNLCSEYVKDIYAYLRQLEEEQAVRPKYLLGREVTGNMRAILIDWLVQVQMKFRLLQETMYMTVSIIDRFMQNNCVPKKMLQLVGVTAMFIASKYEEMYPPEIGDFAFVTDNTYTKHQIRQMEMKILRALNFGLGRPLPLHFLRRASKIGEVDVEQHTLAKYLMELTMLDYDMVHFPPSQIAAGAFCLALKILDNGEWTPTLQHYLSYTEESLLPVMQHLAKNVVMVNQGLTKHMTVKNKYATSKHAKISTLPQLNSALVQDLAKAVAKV
Method: as §2, §1

cdk5 p35(h) = biological target: T4, cdk5 p35(h) (Homo sapiens, UniProt Q00535); assay: Kinase inhibitory activity (EMD Millipore KinaseProfiler), cdk5; assay type: biochemical; conditions: 20 μM highest concentration used; read-out: Cdk5 EC50/IC50 affinities
T4 construct: purchased EMD Millipore KinaseProfiler service (Millipore UK Ltd.)
T4 sequence (Q00535 whole entry): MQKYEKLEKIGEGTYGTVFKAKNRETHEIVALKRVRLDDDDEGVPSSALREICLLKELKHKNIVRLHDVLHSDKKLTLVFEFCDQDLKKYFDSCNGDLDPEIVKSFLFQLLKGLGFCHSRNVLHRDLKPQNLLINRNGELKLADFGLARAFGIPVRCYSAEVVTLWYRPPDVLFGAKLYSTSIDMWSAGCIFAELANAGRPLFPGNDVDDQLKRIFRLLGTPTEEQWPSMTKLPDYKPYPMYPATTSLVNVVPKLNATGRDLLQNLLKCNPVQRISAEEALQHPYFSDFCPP
T4 sequence (Q15078 whole entry partner): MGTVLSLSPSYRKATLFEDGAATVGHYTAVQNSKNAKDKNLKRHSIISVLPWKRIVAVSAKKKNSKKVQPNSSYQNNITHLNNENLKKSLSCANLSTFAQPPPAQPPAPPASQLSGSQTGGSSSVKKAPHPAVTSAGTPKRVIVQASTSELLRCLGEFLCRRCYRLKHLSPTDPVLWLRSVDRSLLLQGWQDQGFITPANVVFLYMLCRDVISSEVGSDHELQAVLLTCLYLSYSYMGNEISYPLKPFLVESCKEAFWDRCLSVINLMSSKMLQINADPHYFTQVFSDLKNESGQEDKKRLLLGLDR
Method: as §2, §1

[2] = biological target: T5, mitogen-activated protein kinase (MAPK1(h)) (Homo sapiens, UniProt P27361); assay: Kinase inhibitory activity (EMD Millipore KinaseProfiler), MAPK1; assay type: biochemical; conditions: 20 μM highest concentration used; read-out: MAPK EC50/IC50 affinities
T5 construct: purchased EMD Millipore KinaseProfiler service (Millipore UK Ltd.)
T5 sequence (P27361 whole entry): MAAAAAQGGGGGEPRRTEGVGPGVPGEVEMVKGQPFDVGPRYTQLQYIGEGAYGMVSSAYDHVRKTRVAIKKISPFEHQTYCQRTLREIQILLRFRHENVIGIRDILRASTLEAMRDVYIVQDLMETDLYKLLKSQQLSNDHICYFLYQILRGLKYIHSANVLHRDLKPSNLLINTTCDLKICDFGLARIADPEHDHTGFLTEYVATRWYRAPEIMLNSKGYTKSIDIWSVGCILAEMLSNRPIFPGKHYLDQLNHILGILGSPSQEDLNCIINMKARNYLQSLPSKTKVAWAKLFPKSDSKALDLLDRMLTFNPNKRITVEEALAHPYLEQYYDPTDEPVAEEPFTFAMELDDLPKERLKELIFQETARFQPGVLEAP
Method: as §2, §3

[3] = biological target: T6, myosin light-chain kinase (MLCK(h)) (Homo sapiens, UniProt Q9H1R3); assay: Kinase inhibitory activity (EMD Millipore KinaseProfiler), MLCK; assay type: biochemical; conditions: 20 μM highest concentration used; read-out: MLCK EC50/IC50 affinities
T6 construct: purchased EMD Millipore KinaseProfiler service (Millipore UK Ltd.)
Method: as §2, §3

[4] = Solubility in saline with 1% DMSO; assay type: physicochemical; conditions: saline or isotonic, kinetic from dmso stock
[5] = Table 3, calcium channel agonist, read-out: N-type EC50/IC50 affinities
[6] = whole cell perforated patch clamp, deactivation (tail) currents from N-type channels, read-out: N-Type Ca^2+ Channel Activity EC50 +/− SEM

Structure (SMILES) | decreased channel activity vs 13u [1] | agonist effect on the Ca^2+ channel tail currents (in words) ([1]; N-type) | maximal fold increase in the tail current integral relative to control ([1]; N-type channels) [fold] | EC50 [1, 5] [µM] | EC50 [1, 6] [µM] | IC50 (cdk2 cyclinA(h); 20 μM highest concentration used, read-out: Cdk2 EC50/IC50 affinities) [µM] | EC50 (cdk2 cyclinA(h); determined in duplicate at 0.2, 2, and 20 μM, read-out: Cdk2 Activity EC50 +/− SEM) [µM] | IC50 (Cdk1 cyclinB(h)) [µM] | IC50 (cdk5 p35(h)) [µM] | IC50 [2] [µM] | IC50 [3] [µM] | solubility [4] [µM] | increased Ca^2+ channel agonism vs. (R)-roscovitine ([1]; N-type) [fold]
CC[C@H](CO)Nc1nc(NCc2ccc(C)s2)c2ncn(C)c2n1 [Compound 13w, (2R)-2-[(9-Methyl-6-{[(5-methylthiophen-2-yl)methyl]amino}-9H-purin-2-yl)amino]butan-1-ol] | ca. 3 fold | strong agonist effect | ~13 | 30 ± 1.87 | 30 ± 1.87 | 3.04 ± 0.17 | 3 | 10.5 ± 2.77 | 2.81 ± 0.91 | > 20 | > 20 |  | 
CC[C@H](CO)Nc1nc(NCc2ccccc2)c2ncn(C)c2n1 [Compound 13k, (R)-2-(6-(Benzylamino)-9-methyl-9H-purin-2-ylamino)butan-1-ol] |  |  |  |  | > 70 |  |  |  |  |  |  | ≤ 200 | 
CC[C@H](CO)Nc1nc(NCc2ccc(C)s2)c2ncn(C(C)C)c2n1 [Compound 13u, (R)-2-(9-Isopropyl-6-((5-methylthiophen-2-yl)methylamino)-9H-purin-2-ylamino)butan-1-ol] |  | strong agonist effect |  | 11.3 ± 1.48 | 11.3 ± 1.48 |  |  |  |  | > 20 | 19.5 ± 8.65 |  | ~4
